In ChEMBL document CHEMBL5365451, “Discovery of CVN417, a Novel Brain-Penetrant α6-Containing Nicotinic Receptor Antagonist for the Modulation of Motor Dysfunction” (J Med Chem, 2023):

How the values were obtained:
[1] = target: Neuronal acetylcholine receptor; alpha3/beta4 (Homo sapiens, UniProt P30926+P32297); experiment: Antagonist activity at human alpha3/beta4 nAChR expressed in HEK293 cells assessed as nicotine-induced intracellular calcium release incubated for 15 mins by FLIPR analysis; format: cell-based
[2] = Antagonist activity at human alpha6-alpha3/beta2/beta3 V273S mutant nAChR expressed in HEK293 cells assessed as nicotine-induced intracellular calcium release incubated for 15 mins by FLIPR analysis; format: cell-based; conditions: HEK293, 0.25 h
[3] = target: Neuronal acetylcholine receptor; alpha4/beta2 (Homo sapiens, UniProt P17787+P43681); experiment: Antagonist activity at human alpha4/beta2 nAChR expressed in HEK293 cells assessed as nicotine-induced intracellular calcium release incubated for 15 mins by FLIPR analysis; format: cell-based
Rattus norvegicus = experiment: Protection against tacrine-induced po dosed Sprague-Dawley rat tremulous jaw model assessed as decrease in tremor duration pretreated with compound for 90 mins followed by tacrine addition and measured after 5 mins; format: functional, organism-based; conditions: dose 3-25 mg/kg, time 95.0 min
Brain = experiment: Drug concentration in po dosed Sprague-Dawley rat brain measured after 2 hrs by LC-MS/MS analysis; format: functional, organism-based; conditions: dose 3-25 mg/kg
[4] = Drug exposure in Sprague-Dawley rat brain at 3 mg/kg, po measured for 2 hrs by LC-MS/MS analysis; format: ADME, organism-based; conditions: read-out: Drug uptake
[5] = Oral bioavailability in Sprague-Dawley rat 3 mg/kg by LC-MS/MS analysis; format: ADME, organism-based; conditions: in vivo
[6] = Volume of distribution at steady state in Sprague-Dawley rat at 0.5 mg/kg, iv by LC-MS/MS analysis; format: ADME, organism-based; conditions: in vivo, read-out: Vdss
[7] = Intrinsic clearance in Sprague-Dawley rat at 0.5 mg/kg, iv by LC-MS/MS analysis; format: ADME, organism-based; conditions: in vivo
[8] = Metabolic stability in rat liver microsome assessed as clearance preincubated for 60 mins followed by NADPH addition and measured after 60 mins by LC-MS/MS analysis; format: ADME; conditions: liver microsomes, time 120 min, read-out: CLH
[9] = Metabolic stability in human liver microsome assessed as clearance preincubated for 60 mins followed by NADPH addition and measured after 60 mins by LC-MS/MS analysis; format: ADME; conditions: liver microsomes, time 120 min, read-out: CLH

Sequence of Neuronal acetylcholine receptor; alpha4/beta2 (P17787 whole entry): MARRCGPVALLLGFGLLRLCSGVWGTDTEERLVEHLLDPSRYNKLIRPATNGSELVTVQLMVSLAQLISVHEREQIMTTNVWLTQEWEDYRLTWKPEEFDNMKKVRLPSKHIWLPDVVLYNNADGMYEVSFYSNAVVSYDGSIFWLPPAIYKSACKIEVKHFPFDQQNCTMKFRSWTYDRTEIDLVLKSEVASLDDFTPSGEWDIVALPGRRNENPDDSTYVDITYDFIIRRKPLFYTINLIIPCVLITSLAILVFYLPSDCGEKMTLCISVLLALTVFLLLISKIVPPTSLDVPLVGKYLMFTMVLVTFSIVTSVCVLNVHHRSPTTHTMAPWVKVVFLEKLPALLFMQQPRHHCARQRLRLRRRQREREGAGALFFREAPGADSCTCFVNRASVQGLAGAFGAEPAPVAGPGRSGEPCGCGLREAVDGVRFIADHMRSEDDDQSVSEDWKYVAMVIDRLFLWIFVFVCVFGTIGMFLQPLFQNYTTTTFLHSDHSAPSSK
Sequence of Neuronal acetylcholine receptor; alpha4/beta2 (P43681 whole entry): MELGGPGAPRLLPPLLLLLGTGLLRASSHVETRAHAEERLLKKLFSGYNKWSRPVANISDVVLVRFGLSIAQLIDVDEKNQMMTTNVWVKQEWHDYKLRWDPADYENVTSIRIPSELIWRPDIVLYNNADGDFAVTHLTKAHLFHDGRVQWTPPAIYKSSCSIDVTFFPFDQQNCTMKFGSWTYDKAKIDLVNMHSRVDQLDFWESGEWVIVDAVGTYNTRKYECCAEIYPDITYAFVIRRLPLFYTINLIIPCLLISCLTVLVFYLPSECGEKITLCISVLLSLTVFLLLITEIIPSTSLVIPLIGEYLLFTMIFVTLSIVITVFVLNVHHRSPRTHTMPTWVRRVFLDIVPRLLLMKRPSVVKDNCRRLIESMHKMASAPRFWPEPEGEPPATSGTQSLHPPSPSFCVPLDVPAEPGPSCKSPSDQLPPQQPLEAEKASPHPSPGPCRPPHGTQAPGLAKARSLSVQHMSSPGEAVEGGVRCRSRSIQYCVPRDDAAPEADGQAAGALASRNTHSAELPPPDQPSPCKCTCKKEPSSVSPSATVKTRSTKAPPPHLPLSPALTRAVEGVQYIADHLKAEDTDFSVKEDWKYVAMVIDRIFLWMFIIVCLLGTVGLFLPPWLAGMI
Sequence of Neuronal acetylcholine receptor; alpha3/beta4 (P30926 whole entry): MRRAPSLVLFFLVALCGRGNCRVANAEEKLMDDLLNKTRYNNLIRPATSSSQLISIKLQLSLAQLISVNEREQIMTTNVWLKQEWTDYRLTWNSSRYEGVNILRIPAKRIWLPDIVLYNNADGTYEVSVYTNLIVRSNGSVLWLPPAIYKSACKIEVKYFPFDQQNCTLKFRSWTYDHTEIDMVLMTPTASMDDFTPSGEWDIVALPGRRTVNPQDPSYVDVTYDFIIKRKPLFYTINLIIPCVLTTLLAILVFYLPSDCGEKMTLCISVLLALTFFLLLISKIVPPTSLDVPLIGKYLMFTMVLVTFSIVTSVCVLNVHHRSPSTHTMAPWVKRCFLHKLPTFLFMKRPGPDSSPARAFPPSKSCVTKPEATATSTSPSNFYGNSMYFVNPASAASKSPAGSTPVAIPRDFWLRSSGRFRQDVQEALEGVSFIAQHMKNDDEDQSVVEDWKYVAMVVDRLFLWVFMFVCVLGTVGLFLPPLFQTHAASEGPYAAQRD
Sequence of Neuronal acetylcholine receptor; alpha3/beta4 (P32297 whole entry): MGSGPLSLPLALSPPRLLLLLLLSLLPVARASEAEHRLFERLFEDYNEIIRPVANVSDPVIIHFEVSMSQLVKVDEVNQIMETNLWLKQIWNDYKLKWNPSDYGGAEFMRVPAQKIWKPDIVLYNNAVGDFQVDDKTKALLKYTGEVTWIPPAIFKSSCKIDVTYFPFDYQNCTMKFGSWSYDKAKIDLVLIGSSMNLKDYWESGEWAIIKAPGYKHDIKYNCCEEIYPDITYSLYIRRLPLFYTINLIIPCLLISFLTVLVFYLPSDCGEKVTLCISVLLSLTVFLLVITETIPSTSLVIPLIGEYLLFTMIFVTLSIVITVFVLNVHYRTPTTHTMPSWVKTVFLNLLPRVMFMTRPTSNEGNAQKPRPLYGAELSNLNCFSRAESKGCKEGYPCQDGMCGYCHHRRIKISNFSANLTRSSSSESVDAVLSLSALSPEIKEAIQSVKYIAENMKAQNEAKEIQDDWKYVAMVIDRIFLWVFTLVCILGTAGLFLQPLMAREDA

IC50 [1]	IC50 [2]	IC50 [3]	concentration at 2 h [4]	bioavailability [5]	Vd [6]	CL [7]	microsomal CLint [8]	microsomal CLint [9]	Compound	Activity (Rattus norvegicus)	Drug uptake (Brain)
–	3290 nM	–	–	–	–	–	–	–	Cn1nc(C(=O)NCC2CCCOC2)cc1-c1ccc(C(F)(F)F)cc1 (racemic)	–	–
6250 nM	133 nM	993 nM	140 nM	86.6%	23.4 L/kg	20.4 mL/min/kg	3.2 µL/min/mg	1.2 µL/min/mg	CN1[C@@H]2CCC[C@H]1C[C@H](NC(=O)c1cc(-c3ccc(C(F)(F)F)cc3)n(C)n1)C2	–	–
637 nM	80 nM	2820 nM	1910 nM	> 100%	13.4 L/kg	70 mL/min/kg	3.5 µL/min/mg	21.4 µL/min/mg	CN1CCC[C@@H](NC(=O)c2cc(-c3ccc(C(F)(F)F)cc3)n(C)n2)C1	–	–
2450 nM	132 nM	7720 nM	948 nM	18.1%	18.5 L/kg	47 mL/min/kg	31.2 µL/min/mg	28.9 µL/min/mg	CN1CCC(NC(=O)c2cc(-c3ccc(C(F)(F)F)cc3)n(C)n2)C1 (racemic)	–	–

Second part, the molecule before the results:

Compound	IC50 [1]	IC50 [2]	IC50 [3]	concentration at 2 h [4]	bioavailability [5]	Vd [6]	CL [7]	microsomal CLint [8]	microsomal CLint [9]	Activity (Rattus norvegicus)	Drug uptake (Brain)
COc1ccc(-c2cc(C(=O)N[C@H]3CCCN(C)C3)nn2C)cc1	> 10000 nM	194 nM	2620 nM	–	–	–	–	–	–	–	–
CN1CCC[C@H](NC(=O)c2cc(-c3ccc(C(F)(F)F)cc3Cl)n(C)n2)C1	–	83 nM	–	–	–	–	–	–	–	–	–
CN1CCC[C@@H](NC(=O)c2cc(-c3ccc(C(F)(F)F)cc3Cl)n(C)n2)C1	–	76 nM	–	–	–	–	–	–	–	–	–
COc1ccc(-c2cc(C(=O)N[C@@H]3CCCN(C)C3)nn2C)c(Cl)c1	2090 nM	77 nM	563 nM	–	–	–	–	–	–	Dose-Dependent Effect	Dose-Dependent Effect
COc1ccc(-c2cc(C(=O)N[C@@H]3CCCN(C)C3)nn2C)cc1	> 10000 nM	230 nM	3500 nM	–	–	–	–	–	–	–	–
CN1CCC(NC(=O)c2cc(-c3ccc(C(F)(F)F)cc3)nn2C)CC1	–	3840 nM	–	–	–	–	–	–	–	–	–
